Measurements published in ChEMBL document CHEMBL4376816, “Discovery of the Oral Leukotriene C4 Synthase Inhibitor (1S,2S)-2-({5-[(5-Chloro-2,4-difluorophenyl)(2-fluoro-2-methylpropyl)amino]-3-methoxypyrazin-2-yl}carbonyl)cyclopropanecarboxylic Acid (AZD9898) as a New Treatment for Asthma” (J Med Chem, 2019).
Values after ≈ are worked out from the molar mass of the structure shown. Active and inactive are the calls of the source. The rule behind the calls is not given here.

Columns and labels:
[1] = Fraction unbound in Sprague-Dawley rat plasma by equilibrium dialysis based LC-MS analysis; type: ADME, cell-free
[2] = Fraction unbound in Beagle dog plasma by equilibrium dialysis based LC-MS analysis; type: ADME, cell-free, Canis lupus familiaris
[3] = Fraction unbound in human plasma by equilibrium dialysis based LC-MS analysis; type: ADME, cell-free
[4] = Effective half life in Beagle dog at 1 mg/kg, iv infusion or 2 mg/kg, po via gavage after 48 hrs; type: ADME, organism-based, Canis lupus familiaris; details: in vivo, read-out: t1/2eff (converted)
[5] = Effective half life in Han Wistar rat at 0.5 mg/kg, iv or 1 mg/kg, po after 24 hrs; type: ADME, organism-based; details: in vivo, read-out: t1/2eff (converted)
[6] = Oral bioavailability in Beagle dog at 2 mg/kg via gavage after 48 hrs; type: ADME, organism-based, Canis lupus familiaris; details: in vivo
[7] = Oral bioavailability in Han Wistar rat at 1 mg/kg after 24 hrs; type: ADME, organism-based; details: in vivo
[8] = Octanol/Sodium phosphate buffer partition coefficient, log D of compound at pH 7.4 at 1 mg incubated for overnight under shaking condition by LC-MS/MS analysis; type: physicochemical
[9] = Intrinsic clearance in human hepatocytes at 1 uM assessed as per million cells after 2 to 60 mins by LC-MS/MS analysis; type: ADME, cell-based, Hepatocyte; details: read-out: CLH
Rattus norvegicus = test: In vivo inhibition of LTC4S in po dosed Sprague-Dawley rat assessed as unbound drug concentration required for inhibition of calcium ionophore A23187-induced cysteinyl leukotrienes production in BAL fluid by LC-MS/MS analysis; type: functional
[10] = Thermodynamic solubility of compound in pH 7.4 PBS at 1 mg/ml incubated for 24 hrs under shaking condition by LC-MS/MS analysis; type: physicochemical; details: read-out: Therm_solubility
[11] = Clearance in Han Wistar rat at 0.5 mg/kg, iv or 1 mg/kg, po after 24 hrs; type: ADME, organism-based; details: in vivo
[12] = Clearance in Beagle dog at 1 mg/kg, iv infusion or 2 mg/kg, po via gavage after 48 hrs; type: ADME, organism-based, Canis lupus familiaris; details: in vivo
[13] = Volume of distribution at steady state in Han Wistar rat at 0.5 mg/kg, iv or 1 mg/kg, po after 24 hrs; type: ADME, organism-based; details: in vivo, read-out: Vdss
[14] = Volume of distribution at steady state in Beagle dog at 1 mg/kg, iv infusion or 2 mg/kg, po via gavage after 48 hrs; type: ADME, organism-based, Canis lupus familiaris; details: in vivo, read-out: Vdss
[15] = Displacement of [3H]-GABA/[3]-muscimol from GABA gated chloride channel in Sprague-Dawley rat cortical synoptic membranes by liquid scintillation analysis
[16] = molecular target: T1, Solute carrier organic anion transporter family member 1B1 (Homo sapiens, UniProt Q9Y6L6); test: Inhibition of OATP1B1 (unknown origin) expressed in HEK293 cells measured after 0.5 to 20 mins by scintillation counting analysis; type: ADME, cell-based
T1 sequence (Q9Y6L6 whole entry): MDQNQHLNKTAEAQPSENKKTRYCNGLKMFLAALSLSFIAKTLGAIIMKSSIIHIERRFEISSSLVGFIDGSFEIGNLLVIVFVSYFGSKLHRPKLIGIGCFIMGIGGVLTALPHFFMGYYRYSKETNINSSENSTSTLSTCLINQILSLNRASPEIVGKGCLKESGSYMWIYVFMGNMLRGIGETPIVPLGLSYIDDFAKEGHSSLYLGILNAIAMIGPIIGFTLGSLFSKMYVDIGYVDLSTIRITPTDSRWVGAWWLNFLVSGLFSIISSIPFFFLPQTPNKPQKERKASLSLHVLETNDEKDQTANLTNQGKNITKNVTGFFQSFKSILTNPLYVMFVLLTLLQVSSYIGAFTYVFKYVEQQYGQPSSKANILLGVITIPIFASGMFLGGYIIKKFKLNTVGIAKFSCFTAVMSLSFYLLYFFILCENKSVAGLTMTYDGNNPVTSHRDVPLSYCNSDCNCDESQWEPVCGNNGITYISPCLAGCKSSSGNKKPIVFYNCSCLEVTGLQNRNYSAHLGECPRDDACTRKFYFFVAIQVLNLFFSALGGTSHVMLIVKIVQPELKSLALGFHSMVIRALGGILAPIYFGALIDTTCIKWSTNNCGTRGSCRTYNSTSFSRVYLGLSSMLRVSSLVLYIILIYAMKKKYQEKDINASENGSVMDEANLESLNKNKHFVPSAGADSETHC

[17] = Cmax in po dosed rat at NOAEL measured after 7 days; type: ADME, organism-based; parameters: route oral; details: in vivo
[18] = AUC in po dosed rat at NOAEL measured after 7 days; type: ADME, organism-based; details: in vivo
Cytochrome P450 1A2 = molecular target: T2, Cytochrome P450 1A2 (Homo sapiens, UniProt P05177); test: Inhibition of recombinant human CYP1A2 using coumarin based substrate by fluorescence assay; type: ADME
T2 sequence (P05177 whole entry): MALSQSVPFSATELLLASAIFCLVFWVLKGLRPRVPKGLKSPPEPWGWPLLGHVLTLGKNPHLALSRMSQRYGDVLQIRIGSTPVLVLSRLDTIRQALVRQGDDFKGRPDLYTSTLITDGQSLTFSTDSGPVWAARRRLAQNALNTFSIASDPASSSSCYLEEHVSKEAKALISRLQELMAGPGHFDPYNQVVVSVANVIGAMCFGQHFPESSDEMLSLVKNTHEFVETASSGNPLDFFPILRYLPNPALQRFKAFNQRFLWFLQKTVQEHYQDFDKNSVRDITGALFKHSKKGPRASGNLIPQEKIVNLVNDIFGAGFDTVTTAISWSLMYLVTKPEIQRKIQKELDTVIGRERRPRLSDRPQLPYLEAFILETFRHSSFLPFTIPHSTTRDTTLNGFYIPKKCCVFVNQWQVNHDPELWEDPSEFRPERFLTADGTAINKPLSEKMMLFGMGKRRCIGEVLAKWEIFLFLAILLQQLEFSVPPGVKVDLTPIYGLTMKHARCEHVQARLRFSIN

Cytochrome P450 2C9 = Cytochrome P450 2C9 (Homo sapiens, UniProt P11712); test: Inhibition of recombinant human CYP2C9 expressed in Escherichia coli using coumarin based substrate by fluorescence assay; type: ADME
Cytochrome P450 2C19 = Cytochrome P450 2C19 (Homo sapiens, UniProt P33261); test: Inhibition of recombinant human CYP2C19 using coumarin based substrate by fluorescence assay; type: ADME
Cytochrome P450 3A4 = Cytochrome P450 3A4 (Homo sapiens, UniProt P08684); test: Inhibition of recombinant human CYP3A4 expressed in Escherichia coli using coumarin based substrate by fluorescence assay; type: ADME
Cytochrome P450 2D6 = Cytochrome P450 2D6 (Homo sapiens, UniProt P10635); test: Inhibition of recombinant human CYP2D6 using coumarin based substrate by fluorescence assay; type: ADME
[19] = Cmax in po dosed rat at LOAEL measured after 7 days; type: ADME, organism-based; parameters: route oral; details: in vivo
[20] = AUC in po dosed rat at LOAEL measured after 7 days; type: ADME, organism-based; details: in vivo
[21] = Toxicity in rat assessed as sperm granuloma at 300 mg/kg, po after 7 days; type: organism-based; details: in vivo
[22] = Toxicity in rat assessed as bilirubinemia at 300 mg/kg, po after 7 days; type: organism-based; details: in vivo
[23] = Toxicity in rat assessed as liver hypertrophy at 300 mg/kg, po after 7 days; type: organism-based; details: in vivo
[24] = molecular target: Voltage-gated inwardly rectifying potassium channel KCNH2 (Homo sapiens, UniProt Q12809); test: Inhibition of human ERG by electrophysiology based assay
[25] = Toxicity in rat assessed as unilateral sperm granuloma at 300 mg/kg, po after 7 days; type: organism-based; details: in vivo
[26] = Apparent permeability across apical to basolateral side in human Caco2 cells; details: Caco-2
[27] = molecular target: T3, Leukotriene C4 synthase (Homo sapiens) (UniProt Q16873); test: Inhibition of LTC4S in healthy human whole blood assessed as inhibition of calcium ionophore A23187 stimulated cysteinyl leukotrienes production preincuabted for 30 mins followed by calcium ionophore stimulation and measured after 10 mins by LC-MS analysis; type: tissue-based
T3 sequence (whole entry): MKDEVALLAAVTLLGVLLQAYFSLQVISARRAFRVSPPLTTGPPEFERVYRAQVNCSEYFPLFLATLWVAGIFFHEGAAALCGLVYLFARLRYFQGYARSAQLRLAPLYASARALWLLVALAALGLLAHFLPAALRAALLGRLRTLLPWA

[28] = molecular target: T3, Leukotriene C4 synthase (Homo sapiens); test: Inhibition of LTC4S in asthmatic human whole blood assessed as inhibition of calcium ionophore A23187 stimulated cysteinyl leukotrienes production preincuabted for 30 mins followed by calcium ionophore stimulation and measured after 10 mins by LC-MS analysis; type: tissue-based
Leukotriene C4 synthase = molecular target: T4, Leukotriene C4 synthase (Homo sapiens, UniProt Q16873)
T4 sequence (Q16873 whole entry): T3 sequence (whole entry)

Chain of Cytochrome P450 2C19 (P33261 whole entry): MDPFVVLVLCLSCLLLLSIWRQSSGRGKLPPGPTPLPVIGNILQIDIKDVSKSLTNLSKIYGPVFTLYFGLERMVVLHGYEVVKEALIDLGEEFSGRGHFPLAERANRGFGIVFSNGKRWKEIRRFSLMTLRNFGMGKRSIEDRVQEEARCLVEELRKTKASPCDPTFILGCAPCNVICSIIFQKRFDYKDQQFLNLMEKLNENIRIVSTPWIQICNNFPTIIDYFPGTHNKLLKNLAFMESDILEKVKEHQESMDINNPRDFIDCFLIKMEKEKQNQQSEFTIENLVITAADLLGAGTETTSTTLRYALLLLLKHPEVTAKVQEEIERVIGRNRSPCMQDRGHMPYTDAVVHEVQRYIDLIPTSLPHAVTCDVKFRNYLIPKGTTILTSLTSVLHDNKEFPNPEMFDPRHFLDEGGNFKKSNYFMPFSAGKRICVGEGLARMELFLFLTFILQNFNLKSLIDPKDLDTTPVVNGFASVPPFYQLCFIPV
Chain of Cytochrome P450 2C9 (P11712 whole entry): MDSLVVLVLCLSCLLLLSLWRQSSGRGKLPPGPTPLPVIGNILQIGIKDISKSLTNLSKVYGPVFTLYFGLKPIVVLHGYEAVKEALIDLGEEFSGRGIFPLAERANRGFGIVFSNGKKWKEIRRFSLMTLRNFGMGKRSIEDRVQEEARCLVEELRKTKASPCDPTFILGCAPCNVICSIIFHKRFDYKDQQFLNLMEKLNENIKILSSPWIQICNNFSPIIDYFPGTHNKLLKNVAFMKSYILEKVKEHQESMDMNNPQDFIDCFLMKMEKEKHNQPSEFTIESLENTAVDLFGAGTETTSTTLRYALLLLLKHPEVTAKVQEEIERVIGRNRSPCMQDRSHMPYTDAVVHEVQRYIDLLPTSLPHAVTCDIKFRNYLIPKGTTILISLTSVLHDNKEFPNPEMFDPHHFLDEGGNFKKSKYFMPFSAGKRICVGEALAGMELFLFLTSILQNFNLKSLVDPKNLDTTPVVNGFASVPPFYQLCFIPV
Chain of Cytochrome P450 2D6 (P10635 whole entry): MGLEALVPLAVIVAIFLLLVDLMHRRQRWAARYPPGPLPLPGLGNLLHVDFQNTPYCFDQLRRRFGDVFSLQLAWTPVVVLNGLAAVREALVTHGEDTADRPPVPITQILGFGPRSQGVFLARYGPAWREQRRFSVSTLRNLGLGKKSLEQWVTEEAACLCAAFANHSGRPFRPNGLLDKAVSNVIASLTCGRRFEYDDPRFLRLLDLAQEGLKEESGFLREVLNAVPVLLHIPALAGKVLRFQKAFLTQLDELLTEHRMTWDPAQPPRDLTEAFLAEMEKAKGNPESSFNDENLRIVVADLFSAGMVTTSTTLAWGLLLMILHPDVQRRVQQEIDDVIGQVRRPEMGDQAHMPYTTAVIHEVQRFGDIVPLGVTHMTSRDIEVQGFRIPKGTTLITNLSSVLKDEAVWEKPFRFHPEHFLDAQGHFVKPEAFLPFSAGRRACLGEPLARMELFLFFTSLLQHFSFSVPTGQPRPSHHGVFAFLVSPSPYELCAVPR
Chain of Cytochrome P450 3A4 (P08684 whole entry): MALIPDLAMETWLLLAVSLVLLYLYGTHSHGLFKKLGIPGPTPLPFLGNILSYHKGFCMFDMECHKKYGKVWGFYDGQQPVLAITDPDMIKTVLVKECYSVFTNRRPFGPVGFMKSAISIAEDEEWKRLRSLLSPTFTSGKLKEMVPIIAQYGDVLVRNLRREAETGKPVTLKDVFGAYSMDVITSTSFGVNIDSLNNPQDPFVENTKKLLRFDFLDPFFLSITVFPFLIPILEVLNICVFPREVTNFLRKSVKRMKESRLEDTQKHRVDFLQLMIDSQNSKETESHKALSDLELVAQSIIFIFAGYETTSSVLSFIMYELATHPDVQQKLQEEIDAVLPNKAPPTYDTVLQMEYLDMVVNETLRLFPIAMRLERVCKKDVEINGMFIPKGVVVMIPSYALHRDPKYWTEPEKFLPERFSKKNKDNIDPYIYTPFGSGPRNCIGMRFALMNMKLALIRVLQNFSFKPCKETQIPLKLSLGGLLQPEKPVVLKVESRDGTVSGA
Chain of Voltage-gated inwardly rectifying potassium channel KCNH2 (Q12809 whole entry): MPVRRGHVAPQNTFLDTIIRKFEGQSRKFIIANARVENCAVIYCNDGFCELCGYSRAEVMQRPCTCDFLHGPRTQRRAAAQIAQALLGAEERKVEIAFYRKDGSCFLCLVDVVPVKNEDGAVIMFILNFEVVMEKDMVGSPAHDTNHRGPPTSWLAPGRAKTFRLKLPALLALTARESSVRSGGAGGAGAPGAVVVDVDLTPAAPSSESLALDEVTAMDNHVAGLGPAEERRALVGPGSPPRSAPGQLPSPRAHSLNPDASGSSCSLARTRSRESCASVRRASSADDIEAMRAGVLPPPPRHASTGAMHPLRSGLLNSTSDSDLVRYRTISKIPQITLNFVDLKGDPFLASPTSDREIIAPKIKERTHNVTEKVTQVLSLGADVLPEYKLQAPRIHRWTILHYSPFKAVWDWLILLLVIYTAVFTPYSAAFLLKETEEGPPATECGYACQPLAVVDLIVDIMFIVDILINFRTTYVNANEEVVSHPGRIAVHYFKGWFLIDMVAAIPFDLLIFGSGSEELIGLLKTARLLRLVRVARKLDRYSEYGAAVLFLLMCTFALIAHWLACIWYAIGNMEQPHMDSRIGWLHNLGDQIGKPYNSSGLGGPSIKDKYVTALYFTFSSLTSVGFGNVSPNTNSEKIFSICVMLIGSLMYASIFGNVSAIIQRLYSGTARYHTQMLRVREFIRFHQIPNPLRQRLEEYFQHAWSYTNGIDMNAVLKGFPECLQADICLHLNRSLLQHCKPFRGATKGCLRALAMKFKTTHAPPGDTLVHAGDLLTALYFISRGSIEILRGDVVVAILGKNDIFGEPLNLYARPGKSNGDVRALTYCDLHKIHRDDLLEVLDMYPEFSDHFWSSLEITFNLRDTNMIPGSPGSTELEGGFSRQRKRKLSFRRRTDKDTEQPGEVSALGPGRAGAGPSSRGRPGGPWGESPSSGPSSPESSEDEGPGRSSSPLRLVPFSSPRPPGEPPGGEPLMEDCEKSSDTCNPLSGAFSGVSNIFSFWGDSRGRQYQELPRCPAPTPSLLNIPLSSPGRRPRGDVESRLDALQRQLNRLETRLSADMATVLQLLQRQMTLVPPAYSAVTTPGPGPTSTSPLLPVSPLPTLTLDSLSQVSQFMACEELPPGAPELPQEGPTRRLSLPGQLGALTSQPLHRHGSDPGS

## COc1cc(N(CC2CC2)c2ccc(Cl)c3ccccc23)cnc1C(=O)[C@H]1C[C@@H]1C(=O)O
[1]
  fraction unbound: 0.0062
[2]
  fraction unbound: 0.0021
[3]
  fraction unbound: 0.0066
[4]
  half-life: 4.8 h
[5]
  half-life: 2.7 h
[6]
  bioavailability: 91%
[7]
  bioavailability: 46%
[8]
  logD: 2.4
[9]
  hepatocyte CLint at 1 µM: 5 µL/min/1e6 cells
Rattus norvegicus
  fEC50: 7.5 nM
[10]
  solubility thermodynamic at 24 h: 576 µM (≈ 260 µg/mL)
[11]
  clearance: 12 mL/min/kg
[12]
  clearance: 2.4 mL/min/kg
[13]
  Vd: 2.8 L/kg
[14]
  Vd: 1.1 L/kg
[15]
  IC50: 0.074 µM
[16]
  INH: 0.6 µM
[17]
  Cmax at […]: 47 µM
[18]
  AUC: 200 µM·h
Cytochrome P450 1A2
  IC50: > 20 µM
Cytochrome P450 2C9
  IC50: > 20 µM
Cytochrome P450 2C19
  IC50: > 20 µM
Cytochrome P450 3A4
  IC50: > 20 µM
Cytochrome P450 2D6
  IC50: > 20 µM
[19]
  Cmax at […]: 144 µM
[20]
  AUC: 1830 µM·h
[21]
  Activity: Toxic
[22]
  Activity: Toxic
[23]
  Activity: Toxic
[24]
  inhibition (INH): Not Active
[25]
  Activity: Toxic
[26]
  Papp A→B: 105 ×10⁻⁶ cm/s

## CC(C)(O)c1ccccc1CC[C@@H](SCC1(CC(=O)O)CC1)c1cccc(/C=C/c2ccc3ccc(Cl)cc3n2)c1 [MONTELUKAST]
[27]
  inhibition: Active
[28]
  inhibition: Active
Leukotriene C4 synthase
  IC50: < 5 µM
